Source: patent US9233964B2, “Sulfamide piperazine derivatives as protein tyrosine kinase inhibitors and pharmaceutical use therof” (LEO PHARMA A/S, priority 2011, dated 2016)

Assays:
Type in all cases: biochemical
JAK3 = target: T1, JAK3 (Homo sapiens, UniProt P52333); test: JAK kinase assay (HTRF, phosphorylation of synthetic peptide), JAK3; details: catalytic domain, ATP at Km (2 μM); read-out: JAK3 kinase inhibitory activity (EC50)
T1 construct: All four purified enzymes contain only the catalytic domain; His (N); purchased Carna Biosciences, Inc; host or cells: baculovirus expression system
T1 sequence (P52333 822-1111 limits assumed): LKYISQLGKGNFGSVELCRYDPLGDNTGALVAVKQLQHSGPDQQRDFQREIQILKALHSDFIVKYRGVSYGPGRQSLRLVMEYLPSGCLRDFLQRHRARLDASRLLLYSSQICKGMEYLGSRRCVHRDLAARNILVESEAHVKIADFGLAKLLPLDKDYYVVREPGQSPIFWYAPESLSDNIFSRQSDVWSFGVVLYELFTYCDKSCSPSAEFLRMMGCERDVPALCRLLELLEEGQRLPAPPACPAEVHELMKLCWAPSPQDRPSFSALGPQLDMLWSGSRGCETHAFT

TYK2 = target: T2, TYK2 (Homo sapiens, UniProt P29597); test: JAK kinase assay (HTRF, phosphorylation of synthetic peptide), TYK2; details: catalytic domain, ATP at Km (13 μM); read-out: TYK2 kinase inhibitory activity (EC50)
T2 construct: JAK1 (aa 850-1154) and TYK2 (aa 871-1187) are expressed with an N-terminally fused GST-tag; GST (N); purchased Carna Biosciences, Inc; host or cells: baculovirus expression system
T2 sequence (P29597 871-1187): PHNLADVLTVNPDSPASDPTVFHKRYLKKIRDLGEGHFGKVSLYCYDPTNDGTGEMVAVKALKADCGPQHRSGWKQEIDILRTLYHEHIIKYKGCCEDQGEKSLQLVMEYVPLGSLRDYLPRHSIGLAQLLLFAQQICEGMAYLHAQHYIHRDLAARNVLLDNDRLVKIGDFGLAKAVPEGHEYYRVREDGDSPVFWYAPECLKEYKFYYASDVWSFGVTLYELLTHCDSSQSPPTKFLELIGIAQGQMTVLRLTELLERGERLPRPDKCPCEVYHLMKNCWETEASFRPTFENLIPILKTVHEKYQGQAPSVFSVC
Outline: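 1 µM biotinylated TK peptide at Km ATP in pH 7.0 Hepes, 20-30 min RT. EDTA stop; overnight streptavidin-XL665/cryptate HTRF read.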

JAK2 = target: T3, JAK2 (Homo sapiens, UniProt O60674); test: JAK kinase assay (HTRF, phosphorylation of synthetic peptide), JAK2; details: catalytic domain, ATP at Km (4 μM); read-out: JAK2 kinase inhibitory activity (EC50)
T3 construct: All four purified enzymes contain only the catalytic domain; His (N); purchased Carna Biosciences, Inc; host or cells: baculovirus expression system
T3 sequence (O60674 849-1124 limits assumed): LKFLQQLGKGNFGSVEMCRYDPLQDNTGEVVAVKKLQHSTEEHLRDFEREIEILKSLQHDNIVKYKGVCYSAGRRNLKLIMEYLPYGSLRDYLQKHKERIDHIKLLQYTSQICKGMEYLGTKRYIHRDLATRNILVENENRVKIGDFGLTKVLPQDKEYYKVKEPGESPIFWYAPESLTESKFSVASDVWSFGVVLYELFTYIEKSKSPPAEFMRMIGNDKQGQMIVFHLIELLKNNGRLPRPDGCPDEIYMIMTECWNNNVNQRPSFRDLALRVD
Outline: (§1)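 Catalytic-domain human JAK1 (GST-tagged, aa 850-1154) or His-tagged JAK2, baculovirus-expressed, phosphorylated 1 µM biotinylated TK peptide at Km ATP (JAK1 7 µM, 10 mM MgCl2, 50 nM SEB; JAK2 4 µM, 5 mM MgCl2) in pH 7.0 Hepes, 20-30 min RT. EDTA stop; overnight streptavidin-XL665/cryptate HTRF read.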

JAK1 = target: T4, JAK1 (Homo sapiens, UniProt P23458); test: JAK kinase assay (HTRF, phosphorylation of synthetic peptide), JAK1; details: catalytic domain, ATP at Km (7 μM); read-out: JAK1 kinase inhibitory activity (EC50)
T4 construct: JAK1 (aa 850-1154) and TYK2 (aa 871-1187) are expressed with an N-terminally fused GST-tag; GST (N); purchased Carna Biosciences, Inc; host or cells: baculovirus expression system
T4 sequence (P23458 850-1154): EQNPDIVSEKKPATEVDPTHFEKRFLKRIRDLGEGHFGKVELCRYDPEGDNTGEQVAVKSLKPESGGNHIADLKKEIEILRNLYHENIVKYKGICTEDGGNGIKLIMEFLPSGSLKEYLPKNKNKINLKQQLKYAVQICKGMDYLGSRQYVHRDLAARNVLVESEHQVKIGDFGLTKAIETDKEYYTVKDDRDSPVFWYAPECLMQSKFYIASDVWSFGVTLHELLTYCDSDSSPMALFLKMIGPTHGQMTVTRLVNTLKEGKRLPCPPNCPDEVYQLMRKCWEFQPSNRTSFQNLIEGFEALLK
Outline: as §1

Row | Compound | EC50 (JAK3) [nM] | EC50 (TYK2) [nM] | EC50 (JAK2) [nM] | EC50 (JAK1) [nM]
1 | CN(CC1CCN(C(=O)CCO)CC1)S(=O)(=O)N1CCN(c2ncnc3[nH]ccc23)CC12CC2 [Example 151, N-[[1-(3-hydroxypropanoyl)-4-piperidyl]methyl]-N-methyl-5-(7H-pyrrolo[2,3-d]pyrimidin-4-yl)-5,8-diazaspiro[2.5]octane-8-sulfonamide] | 100 to 500 | 100 to 500 | < 100 | < 100
2 | CN(C[C@@H]1CCCN1C(=O)CO)S(=O)(=O)N1CCN(c2ncnc3[nH]ccc23)CC12CC2 [Example 192, N-[[(2S)-1-(2-hydroxyacetyl)pyrrolidin-2-yl]methyl]-N-methyl-5-(7H-pyrrolo[2,3-d]pyrimidin-4-yl)-5,8-diazaspiro[2.5]octane-8-sulfonamide] | < 100 | < 100 | < 100 | < 100
3 | O=S(=O)(NCC1CCC(F)(F)CC1)N1CCN(c2ncnc3[nH]ccc23)CC12CC2 [Example 148, N-[(4,4-difluorocyclohexyl)methyl]-5-(7H-pyrrolo[2,3-d]pyrimidin-4-yl)-5,8-diazaspiro[2.5]octane-8-sulfonamide] | < 100 | 100 to 500 | < 100 | < 100
4 | CC(C#N)N(C1CCC1)S(=O)(=O)N1CCN(c2ncnc3[nH]ccc23)CC12CC2 (stereo not drawn) [Example 107, N-(1-cyanoethyl)-N-cyclobutyl-5-(7H-pyrrolo[2,3-d]pyrimidin-4-yl)-5,8-diazaspiro[2.5]octane-8-sulfonamide] | < 100 | 100 to 500 | < 100 | < 100
5 | O=S1(=O)CCC(CNS(=O)(=O)N2CCN(c3ncnc4[nH]ccc34)CC23CC3)C1 (stereo not drawn) [Int 37] | < 100 | > 500 | < 100 | < 100
6 | CN(C(=O)CC1CCS(=O)(=O)CC1)S(=O)(=O)N1CCN(c2ncnc3[nH]ccc23)CC12CC2 [Example 136, 2-(1,1-dioxothian-4-yl)-N-methyl-N-[[5-(7H-pyrrolo[2,3-d]pyrimidin-4-yl)-5,8-diazaspiro[2.5]octan-8-yl]sulfonyl]acetamide] | 100 to 500 | > 500 | < 100 | < 100
7 | CN(C(=O)CC(F)(F)F)S(=O)(=O)N1CCN(c2ncnc3[nH]ccc23)CC12CC2 [Example 129, 3,3,3-trifluoro-N-methyl-N-[[5-(7H-pyrrolo[2,3-d]pyrimidin-4-yl)-5,8-diazaspiro[2.5]octan-8-yl]sulfonyl]propanamide] | 100 to 500 | 100 to 500 | < 100 | < 100
8 | CN(C(=O)C1CCC(F)(F)CC1)S(=O)(=O)N1CCN(c2ncnc3[nH]ccc23)CC12CC2 [Example 130, 4,4-difluoro-N-methyl-N-[[5-(7H-pyrrolo[2,3-d]pyrimidin-4-yl)-5,8-diazaspiro[2.5]octan-8-yl]sulfonyl]cyclohexanecarboxamide] | < 100 | 100 to 500 | < 100 | < 100
9 | CN(CCC1CCCCC1)S(=O)(=O)N1CCN(c2ncnc3[nH]ccc23)CC12CC2 [Example 11, 7-(7H-Pyrrolo[2,3-d]pyrimidin-4-yl)-4,7-diaza-spiro[2.5]octane-4-sulfonic acid (2-cyclohexyl-ethyl)-methyl-amide] | 100 to 500 | > 500 | < 100 | < 100
10 | CN(CC1CCC(F)(F)CC1)S(=O)(=O)N1CCN(c2ncnc3[nH]ccc23)CC12CC2 [Example 62, N-[(4,4-difluorocyclohexyl)methyl]-N-methyl-5-(7H-pyrrolo[2,3-d]pyrimidin-4-yl)-5,8-diazaspiro[2.5]octane-8-sulfonamide] | < 100 | < 100 | < 100 | < 100

Second part, the compound after the results:

Row | EC50 (JAK3) [nM] | EC50 (TYK2) [nM] | EC50 (JAK2) [nM] | EC50 (JAK1) [nM] | Compound
11 | < 100 | 100 to 500 | < 100 | < 100 | NS(=O)(=O)N1CCN(c2ncnc3[nH]ccc23)CC12CC2 [Int 1]
12 | 100 to 500 | 100 to 500 | < 100 | < 100 | CN(Cc1ccccn1)S(=O)(=O)N1CCN(c2ncnc3[nH]ccc23)CC12CC2 [Example 28, 7-(7H-Pyrrolo[2,3-d]pyrimidin-4-yl)-4,7-diaza-spiro[2.5]octane-4-sulfonic acid methyl-pyridin-2-ylmethyl-amide]
13 | < 100 | 100 to 500 | < 100 | < 100 | O=S(=O)(N(CCc1ccccc1)CCn1cccn1)N1CCN(c2ncnc3[nH]ccc23)CC12CC2 [Example 24, 7-(7H-Pyrrolo[2,3-d]pyrimidin-4-yl)-4,7-diaza-spiro[2.5]octane-4-sulfonic acid phenethyl-(2-pyrazol-1-yl-ethyl)-amide]
14 | < 100 | < 100 | < 100 | < 100 | CN(CCc1cccc(F)c1)S(=O)(=O)N1CCN(c2ncnc3[nH]ccc23)CC12CC2 [Example 17, 7-(7H-Pyrrolo[2,3-d]pyrimidin-4-yl)-4,7-diaza-spiro[2.5]octane-4-sulfonic acid [2-(3-fluoro-phenyl)-ethyl]-methyl-amide]
15 | > 500 | > 500 | < 100 | 100 to 500 | CN(C)CCCN(C1CCC1)S(=O)(=O)N1CCN(c2ncnc3[nH]ccc23)CC12CC2 [Example 105, N-cyclobutyl-N-[3-(dimethylamino)propyl]-5-(7H-pyrrolo[2,3-d]pyrimidin-4-yl)-5,8-diazaspiro[2.5]octane-8-sulfonamide]
16 | < 100 | 100 to 500 | < 100 | < 100 | CN(C1CN(C(=O)CO)C1)S(=O)(=O)N1CCN(c2ncnc3[nH]ccc23)CC12CC2 [Example 178, N-[1-(2-hydroxyacetyl)azetidin-3-yl]-N-methyl-5-(7H-pyrrolo[2,3-d]pyrimidin-4-yl)-5,8-diazaspiro[2.5]octane-8-sulfonamide]
17 | < 100 | < 100 | < 100 | < 100 | CN(CC1CC1(F)F)S(=O)(=O)N1CCN(c2ncnc3[nH]ccc23)CC12CC2 (stereo not drawn) [Example 86, N-[(2,2-difluorocyclopropyl)methyl]-N-methyl-5-(7H-pyrrolo[2,3-d]pyrimidin-4-yl)-5,8-diazaspiro[2.5]octane-8-sulfonamide]
18 | < 100 | < 100 | < 100 | < 100 | O=S1(=O)CCC(CN(CCO)S(=O)(=O)N2CCN(c3ncnc4[nH]ccc34)CC23CC3)CC1 [Example 170, N-[(1,1-dioxothian-4-yl)methyl]-N-(2-hydroxyethyl)-5-(7H-pyrrolo[2,3-d]pyrimidin-4-yl)-5,8-diazaspiro[2.5]octane-8-sulfonamide]
19 | < 100 | 100 to 500 | < 100 | < 100 | CC(C)CCN(C)S(=O)(=O)N1CCN(c2ncnc3[nH]ccc23)CC12CC2 [Example 27, 7-(7H-Pyrrolo[2,3-d]pyrimidin-4-yl)-4,7-diaza-spiro[2.5]octane-4-sulfonic acid methyl-(3-methyl-butyl)-amide]
20 | 100 to 500 | > 500 | < 100 | < 100 | CCC(=O)CN(CCc1ccccc1)S(=O)(=O)N1CCN(c2ncnc3[nH]ccc23)CC12CC2 [Example 4, 7-(7H-Pyrrolo[2,3-d]pyrimidin-4-yl)-4,7-diaza-spiro[2.5]octane-4-sulfonic acid (2-oxo-butyl)-phenethyl-amide]
21 | < 100 | 100 to 500 | < 100 | < 100 | CN(C)S(=O)(=O)N1CCN(c2ncnc3[nH]ccc23)CC12CC2 [Example 45, 7-(7H-Pyrrolo[2,3-d]pyrimidin-4-yl)-4,7-diaza-spiro[2.5]octane-4-sulfonic acid dimethylamide]
22 | 100 to 500 | 100 to 500 | < 100 | < 100 | O=S(=O)(NOCc1ccccc1)N1CCN(c2ncnc3[nH]ccc23)CC12CC2 [Int 46]
23 | 100 to 500 | > 500 | < 100 | < 100 | O=CNS(=O)(=O)N1CCN(c2ncnc3[nH]ccc23)CC12CC2 [Example 176, N-[[5-(7H-pyrrolo[2,3-d]pyrimidin-4-yl)-5,8-diazaspiro[2.5]octan-8-yl]sulfonyl]formamide]
24 | > 500 | > 500 | 100 to 500 | 100 to 500 | O=S(=O)(N(CCc1ccccc1)CCc1ccccc1)N1CCN(c2ncnc3[nH]ccc23)CC12CC2 [Example 18, 7-(7H-Pyrrolo[2,3-d]pyrimidin-4-yl)-4,7-diaza-spiro[2.5]octane-4-sulfonic acid diphenethylamide]
